Data as given in patent publication US9216169B2, “Pharmaceutical composition comprising candesartan or ester thereof and chlortalidone, and use thereof” (TIANJIN INSTITUTE OF PHARMACEUTICAL RESEARCH, priority 2011, dated 2015).
Where “and” joins values, the source holds several entries; their conditions need not be identical. Equal values may be shown once.

What was measured:
[1] = 25-50 mg/d of hydrochlorothiazide; clinical studies; cited from earlier work
patients = settings: study in 1714 patients; cited from earlier work
[2] = tested on: Spontaneously hypertensive rats (SHR); test: SBP of SHR by Tail-Cuff method, continuous intragastric administration for 8 days (Examples 1-7); format: in vivo, rat; settings: for maximum reduction of the blood pressure / SBP / SBP difference value compared with the basic value / AUC0-24h (area under blood pressure reduction-time curve): Can 0.36 mg/kg i.g. 8 days; for maximum reduction of the blood pressure: 0-24 h after last administration; for AUC0-24h (area under blood pressure reduction-time curve): after last administration
Description: (§1) Spontaneously hypertensive rats (SHR), male, are provided by Beijing Vital River Laboratory Animal Technology Co., Ltd. The number of animal production license is SCXK (Jing) 2007-0001. Animals are raised in an observation room at the room temperature of 25±2° C. controlled by central air-conditioning system and with artificial lighting of 12 h/day. The animals are raised in separate cages sized 43×27×18 cm with 4 animals for each cage. The rats are free access to water and are fed with block fodder everyday, and the water supply is refreshed once a day. The temperature of the room for measuring the blood pressure is 26±2° C.
(§2) The blood pressure is measured by Tail-Cuff method and the hear rate is measured according to the pulse frequency. Animals are pre-trained for the blood pressure measurement for more than 2 weeks so as to adapt to the environment of measurement. Animals are placed in a isothermal bag at 37° C. to be prewarmed for 5 to 10 min for formal measurement. Blood pressures of the rats are measured from tail arteries for 2 to 3 times at rest states, and an average value is taken as each blood pressure measured value. All data are collected and preserved by a computer.
SHRs with systolic blood pressures (SBPs) >190 mmHg are selected for experiment.
Rats are randomly divided into 14 groups according to their blood pressures with each group having 7 rats. Animals are fasted overnight and measured for the blood pressure of pre-administration at the day of experiment, and then administered drugs in accordance with the following method:
The single-drug group is intragastrically administered candesartan (Can) or chlorthalidone (Chl), with the dosage of Can of 0.36 mg/kg and the dosages of Chl of 0.0675, 0.36, 0.54, 0.72, 1.125 and 2.25 mg/kg respectively;
The pharmaceutical composition is administered with 6 different doses (denoted by F1, F2, F3, F4, F5 and F6 respectively). Specifically, the ratios of the dosages of Can+Chl in all pharmaceutical compositions are:
The administration volumes are all 5 ml/kg.
Rats are continuously administered for 8 days. SBPs are measured 2, 4, 8, 12 and 24 hours after the last administration. The area under blood pressure reduction-time curve from 0 to 24 h (AUC0-24) and the maximum blood pressure reduction value are calculated.
(§3) The calculated results are expressed as mean±standard error ( x±SE); statistical treatment is performed using unpaired t test between groups to compare the significance of the average difference; the interaction between drugs are determined by using factorial analysis of variance, and P<0.05 means the difference has statistical significance.

[3] = tested on: Spontaneously hypertensive rats (SHR); test: SBP of SHR by Tail-Cuff method, first administration and continuous administration for 14 days (Examples 8-12); format: in vivo, rat; settings: for AUC0-24h: after first administration
Description: as §1, §2
SHRs with systolic blood pressures (SBPs)>190 mmHg are selected for experiment.
Rats are randomly divided into 20 groups according to their blood pressures with each group having 8-10 rats. Animals are fasted overnight and measured for the blood pressure of pre-administration at the day of experiment, and then administered drugs in accordance with the following method:
The single-drug group is intragastrically administered candesartan (Can) or chlorthalidone (Chl), with the dosage of Can of 0.1, 0.2, 0.4 mg/kg respectively and the dosage of Chl of 0.3125, 0.625, 1.25 mg/kg respectively;
According to the clinical single-drug specification, the ratios of Can+Chl are set as follows:
For the ratio of Can:Chl=1:6.25, one dose of 0.1+0.625 mg/kg is set;
For the ratio of Can:Chl=1:3.125, two doses of 0.2+0.625 and 0.4+1.25 mg/kg are set;
For the ratio of Can:Chl=1.28:1, one dose of 0.4+0.3125 mg/kg is set;
For the ratio of Can:Chl=2.56:1, one dose of 0.4+0.15625 mg/kg is set;
The administration volumes are all 5 mL/kg. Rats are continuously administered for 14 days. SBPs are measured 2, 4, 8, 12 and 24 hours after the first administration. On the day of 3, 7, 14 days after administration, the blood pressures are measured before administration and 5 hours after administration. Areas under blood pressure reduction-time curve from 0 to 24 h and from 0 to 14 days (AUC0-24h, AUC0-14d) are calculated.
as §3

[4] = clinical studies; cited from earlier work
[5] = listed as candesartan cilexetil

**Q.** Which “lowering of 24-hour blood pressure” value [1] does the source give for `NS(=O)(=O)c1cc2c(cc1Cl)NCNS2(=O)=O` [hydrochlorothiazide, Hydrochlorothiazide] here?
**A.** Its value is 7.4 mmHg.

**Q.** And the “lowering of night-time blood pressure” value [1]?
**A.** Its value is 6.4 mmHg.

**Q.** Which “reduction of SBP compared with the basic value” (patients) does the source give for `CCOc1nc2cccc(C(=O)O)c2n1Cc1ccc(-c2ccccc2-c2nc(=O)o[nH]2)cc1` [azilsartan] here?
**A.** The value was 12.1-15.9 mmHg.

**Q.** What does the source list for `CCOc1nc2cccc(C(=O)OC(C)OC(=O)OC3CCCCC3)c2n1Cc1ccc(-c2ccccc2-c2nn[nH]n2)cc1` (stereo not shown) [Can, Candesartan cilexetil]?
**A.** maximum reduction of the blood pressure [2]: −19.0 mmHg; maximum reduction of the blood pressure [2, 5]: 19.0 mmHg; SBP ([2]; 2 h after last administration): 192 mmHg; SBP difference value compared with the basic value ([2]; 2 h after last administration): (−11.0 mmHg; SBP ([2]; 4 h after last administration): 185 mmHg; SBP difference value compared with the basic value ([2]; 4 h after last administration): (−17.7 mmHg; SBP ([2]; 8 h after last administration): 196 mmHg; SBP difference value compared with the basic value ([2]; 8 h after last administration): (−7.3 mmHg; SBP ([2]; 12 h after last administration): 199 mmHg; SBP difference value compared with the basic value ([2]; 12 h after last administration): (−3.7 mmHg; SBP ([2]; 24 h after last administration): 204 mmHg; SBP difference value compared with the basic value ([2]; 24 h after last administration): (1.4 mmHg; AUC0-24h (area under blood pressure reduction-time curve) [2]: −127.0 mmHg · h; AUC0-24h (area under blood pressure reduction-time curve) [2, 5]: −127 mmHg · h; SBP ([2]; pre-administration): 201 mmHg; SBP difference value compared with the basic value ([2]; pre-administration): (−2.0 mmHg; period after administration with significant reduction of SBP ([2]; Can 0.36 mg/kg oral): 2 to 8 h; time at which the antihypertensive effect takes effect after administration ([2]; Can 0.36 mg/kg oral): 2 h; AUC0-14d ([3]; Can 0.1 mg/kg i.g. for 14 days): −149.9 mmHg · d; AUC0-24h ([3]; Can 0.1 mg/kg i.g.): −209.1 mmHg · h; AUC0-14d ([3]; Can 0.2 mg/kg i.g. for 14 days): −173.1 mmHg · d; AUC0-24h ([3]; Can 0.2 mg/kg i.g.): −237.7 mmHg · h; AUC0-14d ([3]; Can 0.4 mg/kg i.g. for 14 days): −227.3 mmHg · d; AUC0-24h ([3]; Can 0.4 mg/kg i.g.): −326.0 mmHg · h and −326 mmHg · h

**Q.** For `NCCCC[C@H](N[C@@H](CCc1ccccc1)C(=O)O)C(=O)N1CCC[C@H]1C(=O)O` [lisinopril], which “valid control rate of blood pressure” value [4] is on record?
**A.** Its value is 61.2%.
